Laboratory results: ChEMBL document CHEMBL1155797, “Cinnamoyl- and hydroxycinnamoyl amides of glaucine and their antioxidative and antiviral activities” (Bioorg Med Chem, 2008)

Assays:
Coxsackievirus B1 [1] = test: Antiviral activity against Coxsackievirus B1 in human FL cells; assay type: functional, organism-based; conditions: Enterovirus B
[2] = test system: Radical scavenging activity; test: Antioxidant activity assessed as DPPH free radical scavenging activity at 1.8 mM after 10 mins; assay type: functional
[3] = test system: Radical scavenging activity; test: Antioxidant activity assessed as DPPH free radical scavenging activity at 3.6 mM after 10 mins; assay type: functional
Poliovirus 1 [4] = test: Antiviral activity against Poliovirus type 1 Lsc-2ab in human FL cells; assay type: functional, organism-based; conditions: Enterovirus C
HeLa = test: Cytotoxicity against human HeLa Ohio-1 cells
[5] = Cytotoxicity against human FL cells after 24 hrs; assay type: cell-based
[6] = test system: Radical scavenging activity; test: Antioxidant activity assessed as DPPH free radical scavenging activity at 0.9 mM after 10 mins; assay type: functional
[7] = Selectivity index, CC50 for human FL cells to IC50 for Coxsackievirus B1; assay type: functional
[8] = Cytotoxicity against human HeLa Ohio-1 cells; assay type: cell-based
[9] = test system: Radical scavenging activity; test: Antioxidant activity assessed as DPPH free radical scavenging activity at 1.8 mM after 20 mins; assay type: functional
Echovirus E13 [10] = test: Antiviral activity against Echovirus 13 in human FL cells; assay type: functional, organism-based; conditions: Enterovirus B
[11] = test system: Radical scavenging activity; test: Antioxidant activity assessed as DPPH free radical scavenging activity at 0.9 mM after 20 mins; assay type: functional
[12] = Selectivity index, CC50 for human FL cells to IC50 for Poliovirus type 1 Lsc-2ab; assay type: functional
[13] = test system: Radical scavenging activity; test: Antioxidant activity assessed as DPPH free radical scavenging activity at 3.6 mM after 20 mins; assay type: functional
[14] = Selectivity index, CC50 for human HeLa Ohio-1 cells to IC50 for Human rhinovirus type 14; assay type: functional
[15] = Selectivity index, CC50 for human FL cells to IC50 for Echovirus 13; assay type: functional
Echovirus E13 [16] = test: Antiviral activity against Echovirus 13 in human FL cells assessed as inhibition of cytopathic effect relative to control; assay type: functional
Poliovirus 1 [17] = test: Antiviral activity against Poliovirus type 1 Lsc-2ab in human FL cells assessed as inhibition of cytopathic effect relative to control; assay type: functional
Coxsackievirus B1 [18] = test: Antiviral activity against Coxsackievirus B1 in human FL cells assessed as inhibition of cytopathic effect relative to control; assay type: functional

Structure (SMILES) | IC50 (Coxsackievirus B1 [1]) | Activity [2] | Activity [3] | IC50 (Poliovirus 1 [4]) | CC50 (HeLa) | CC50 at 24 h [5] | Activity [6] | Ratio CC50/IC50 [7] | IC50 [8] | Activity [9] | IC50 (Echovirus E13 [10]) | Activity [11] | Ratio CC50/IC50 [12] | Activity [13] | Ratio CC50/IC50 [14] | Ratio CC50/IC50 [15] | inhibition (INH) (Echovirus E13 [16]) | inhibition (INH) (Poliovirus 1 [17]) | inhibition (INH) (Coxsackievirus B1 [18])
COc1cc2c(cc1OC)-c1c(OC)c(OC)cc3c1[C@H](C2)N(C)CC3 [GLAUCINE] | 21 µM | 1.1% | 1.4% | 60 µM | 182 µM | 115 µM | 0.8% | 5.5 | 22 µM | 1.3% | 60 µM | 1.2% | 1.9 | 1.6% | 8.3 | 1.9 | – | – | –
COc1cc2c(cc1OC)-c1c(OC)c(OC)cc3ccnc(c13)C2=O [OXOGLAUCINE] | 2.5 µM | – | – | 1.2 µM | 51 µM | 52 µM | – | 20.8 | 0.3 µM | – | 0.5 µM | – | 43.3 | – | 170 | 104 | – | – | –
Cc1cc(CCCCCCCOc2ccc(C3=NCCO3)cc2)on1 [DISOXARIL] | 2 µM | – | – | 2 µM | 21 µM | 25 µM | – | 12.5 | 1.5 µM | – | 1.3 µM | – | 12.5 | – | 14 | 19.2 | – | – | –
COc1cc2c(cc1OC)-c1c(OC)c(OC)c(CNC(=O)/C=C/c3cc(OC)c(O)c(OC)c3)c3c1C(C2)N(C)CC3 (centres undefined) | – | 14.4% | 26.3% | – | 125 µM | 112 µM | 8% | – | 28 µM | 18% | – | 10.5% | – | 31.6% | 4.5 | – | 0% | 0% | 0%
COc1cc(/C=C/C(=O)NCc2c3c4c(c(OC)c2OC)-c2cc(OC)c(OC)cc2CC4N(C)CC3)ccc1O (centres undefined) | – | 16.6% | 31.2% | – | 113 µM | 105 µM | 8.3% | – | 12 µM | 19.4% | – | 10.1% | – | 36.1% | 9.4 | – | <=25% | 0% | 0%
COc1cc(/C=C/C(=O)O)cc(OC)c1O | – | 26.5% | 69% | – | – | – | 16.1% | – | – | 31.9% | – | 17.2% | – | 69.6% | – | – | – | – | –
COc1cc2c(cc1OC)-c1c(OC)c(OC)c(CNC(=O)/C=C/c3ccccc3O)c3c1C(C2)N(C)CC3 (centres undefined) | – | 2.3% | 3.3% | – | 155 µM | 152 µM | 1.1% | – | 15 µM | 3.6% | – | 0.8% | – | 4.2% | 10.3 | – | 0% | <=25% | 0%
O=C(O)/C=C/c1ccccc1O | – | 2.2% | 3.3% | – | – | – | 2.1% | – | – | 2.7% | – | 2.4% | – | 3.6% | – | – | – | – | –
COc1cc(/C=C/C(=O)O)ccc1O | – | 21% | 36.7% | – | – | – | 12% | – | – | 25.1% | – | 13.8% | – | 44.3% | – | – | – | – | –
COc1cc2c(cc1OC)-c1c(OC)c(OC)c(CN)c3c1C(C2)N(C)CC3 (centres undefined) | – | 2.2% | 2.9% | – | – | – | 1.6% | – | – | 3% | – | 2.5% | – | 3.8% | – | – | – | – | –
COc1cc2c(cc1OC)-c1c(OC)c(OC)c(CNC(=O)/C=C/c3ccc(O)cc3)c3c1C(C2)N(C)CC3 (centres undefined) | – | 2% | 3.2% | – | 143 µM | 160 µM | 1.8% | – | 13 µM | 2.5% | 32 µM | 1.8% | – | 4.8% | 11 | 5 | – | <50% | 0%
O=C(O)/C=C/c1ccc(O)cc1 | – | 3.7% | 4.5% | – | – | – | 2.1% | – | – | 4.7% | – | 2.9% | – | 6.1% | – | – | – | – | –
